Measurements as given in patent US4988517A, “Method and composition for inhibiting colon carcinogenesis” (American Health Foundation, priority 1988, dated 1991).

How the values were obtained:
[1] = cited from earlier work
[2] = Body weights of male F344 rats fed the experimental diets; type: in vivo; details: for Body wt, Initial (Wk 0) / Body wt, wk 4 / Body wt, wk 8 / Body wt, wk 16 / Body wt, wk 22 / Body wt, wk 30 / Body wt, wk 37 (at termination): 25 ppm in diet, Mean ± SD
Excerpt: (§1) Experimental Procedure. Male F344 rats received at weaning were quarantined for 10 days and given access to AIN-76A semipurified diet (control diet). They were then be randomly allocated by weight to one of three dietary groups (control diet and 25 ppm BSC and 25 ppm benzylthiocyanate ("BTC") diets). […] Therefore one of our goals was to compare BSC with its sulfur analog BTC. Each dietary group was divided into AOM-treated (27 animals per subgroup) and vehicle-treated (12 animals per subgroup) subgroups and housed in plastic cages with filter tops in the animal holding room under controlled environmental conditions.
(§2) Beginning at 5 wk of age, groups of rats fed the control diet were transferred to diets containing 25 ppm BSC or 25 ppm BTC. At 7 wk of age, the animals in each group, except the vehicle-treated controls, received two weekly s.c. injections of AOM at a dose level of 15 mg/kg body weight/wk. Vehicle controls were treated with an equal volume of normal saline. One wk after AOM or saline treatment, animals receiving the BSC and BTC diets were transferred to the control diets and continued on this diet until the termination of the experiment. The 1-wk delay before transferring to control diet was to ensure complete metabolism and excretion of the carcinogen. The animals receiving the control diet continued on the same diet. The experiment was terminated 34 wk after the last AOM injection.
(§3) Body weights were recorded weekly until the animals reach 16 wk of age and then every 4 wk. Six vehicle-treated animals randomly chosen from each dietary group while they were consuming experimental and control diets were used for tissue and blood plasma glutathione peroxidase analysis.

[3] = system: azoxymethane-induced ear duct tumors; assay: AOM-induced ear duct tumor incidence; type: in vivo, male F344 rats; details: 25 ppm in diet
Excerpt: as §1, §2
Both AOM-and vehicle-treated animals were sacrificed by CO2 euthanasia. Following laparotomy, the entire stomach, small intestine, and large intestine were resected and opened longitudinally, and the contents flushed with normal saline. The location, number, and size of the colon and small intestinal tumors were noted grossly under the dissection microscope. All other organs, including liver and kidneys, were also examined grossly for tumors. […]
(§4) Statistical Analysis. The data on tumor incidence were analyzed statistically by the x^2 method and Fischer's exact probability test, and tumor multiplicity was analyzed by Student's t test. Biochemical results were analyzed by Student's t test.

[4] = system: non-selenium-dependent glutathione peroxidase; assay: Non-selenium-dependent glutathione peroxidase activity in tissues of rats fed the diets; type: in vivo, male F344 rats; details: among the dietary groups
Protocol: as §3
Biochemical Determination. For the determination of tissue and blood plasma glutathione peroxidase activity, 6 vehicle-treated animals from each dietary group, while the animals were on experimental and control diets, were used. Before sacrificing the animals, blood was obtained under ether anesthesia by cardiac puncture with a syringe. They were then decapitated,and liver, kidneys, small intestine, and colon were rapidly removed. The liver was perfused with ice-cold normal saline. […]
Glutathione peroxidase activity was determined spectrophotometrically according to a modification of the enzyme-coupled assay procedure of Paglia and Valentine. […] Total glutathione peroxide was measured with cumene hydroperoxide as a substrate. Selenium-dependent glutathione peroxide was measured with tert-butyl hydroperoxide. […] Absorbance was measured at 340 nm, and activity was measured from the slope of the lines as mol NADPH oxidized/min/mg protein. […] Protein concentration in the cytosol fraction was measured by the method of Lowry et al. with bovine serum albumin as standard.

[5] = General toxicity observation in rats fed the diets; type: in vivo, male F344 rats; details: 25 ppm in diet
Excerpt: as §1, §2, §3

[6] = system: azoxymethane-induced colon tumors; assay: AOM-induced colon tumor incidence and multiplicity (initiation phase feeding); type: in vivo, male F344 rats
Excerpt: as §1, §2
(§5) Both AOM-and vehicle-treated animals were sacrificed by CO2 euthanasia. Following laparotomy, the entire stomach, small intestine, and large intestine were resected and opened longitudinally, and the contents flushed with normal saline. The location, number, and size of the colon and small intestinal tumors were noted grossly under the dissection microscope. All other organs, including liver and kidneys, were also examined grossly for tumors. Tissues were fixed in 10% buffered formalin, embedded in paraffin blocks, and processed by routine histological methods with the use of eosin and hematoxylin stains.
as §4
(§6) Using the above-identified procedures, a study was made of the effect of feeding benzylselenocyanate and its sulfur analogue, benzylthiocyanate, two (2) weeks before, during and until one (1) week after carcinogen administration (initiation phase) on intestinal carcinogenesis induced by azoxymethane (CAS: 25843-45-2) in male F344 rats.

[7] = system: azoxymethane-induced small intestinal tumors; assay: AOM-induced small intestinal tumor incidence and multiplicity; type: in vivo, male F344 rats
Excerpt: as §1, §2, §5, §4, §6

[8] = system: selenium-dependent glutathione peroxidase; assay: Selenium-dependent glutathione peroxidase activity in tissues of rats fed the diets; type: in vivo, male F344 rats
Protocol: as §3
Biochemical Determination. For the determination of tissue and blood plasma glutathione peroxidase activity, 6 vehicle-treated animals from each dietary group, while the animals were on experimental and control diets, were used. Before sacrificing the animals, blood was obtained under ether anesthesia by cardiac puncture with a syringe. They were then decapitated,and liver, kidneys, small intestine, and colon were rapidly removed. The liver was perfused with ice-cold normal saline. The small intestine and colon were slit open longitudinally and freed from all the contents, and the mucosa was scraped with a microscope glass slide. The liver and kidneys were trimmed free of connective tissue, minced with scissors, and homogenized for 10 s in 3 volumes of buffer, pH 7.3 (0.25 sucrose-10 mM EDTA-50 mM potassium phosphate) using a Brinkman Polytron at low speed. The colonic and small intestinal mucosal scrapings were immediately placed into 3 volumes of the same buffer and homogenized similarly. The homogenates were centrifuged in a Sorvall RC-2B centrifuge at 10,000×g, 4° C., for 20 min. The supernatant was centrifuged in a Beckman Ultracentrifuge at 100,000×g, 4° C., for 1 h. The resulting cytosol fraction was used for determination of glutathione peroxidase activity and protein.
Glutathione peroxidase activity was determined spectrophotometrically according to a modification of the enzyme-coupled assay procedure of Paglia and Valentine. The reaction mixture consisted of 50 mM potassium phosphate buffer (pH 7.0), 1 mM EDTA, 0.2 mM NADPH, 1 enzyme unit/ml oxidized glutathione-reductase, 1 mM glutathione, and 1.5 mM cumene hydroperoxide in a total volume of 1 ml. The cytosol was added to the above mixture and allowed to incubate 5 min. at room temperature. Total glutathione peroxide was measured with cumene hydroperoxide as a substrate. Selenium-dependent glutathione peroxide was measured with tert-butyl hydroperoxide. The reaction was started with the addition of substrate solution. Absorbance was measured at 340 nm, and activity was measured from the slope of the lines as mol NADPH oxidized/min/mg protein. Blank reactions without cytosol were run simultaneously. Protein concentration in the cytosol fraction was measured by the method of Lowry et al. with bovine serum albumin as standard.
as §4

[9] = system: carcinogenesis induced by chemicals; details: experimental animals; cited from earlier work
[10] = system: azoxymethane-induced metastasis; assay: AOM-induced metastasis; type: in vivo, male F344 rats
Excerpt: as §1, §2, §5

[11] = 25 ppm in diet 2 wk before to 1 wk after AOM
[12] = 25 ppm in diet, 27 (BSC) or 26 (BTC) animals/group
[13] = 25 ppm in diet 5 wk, Mean ± SE (n = 6)

## [Se] [selenium]
[1]; animals and humans
  Reproductive and teratogenic effects: Toxic reproductive and teratogenic effects
[1]; chronic feeding, animals
  Toxic chronic feeding level: 5 to 10 ppm

## N#CSCc1ccccc1 [BTC, benzylthiocyanate, reference compound]
[2]; AOM or vehicle treated, in words
  Body weights of animals fed experimental vs control diets: comparable
[2]; AOM treated
  Body wt, Initial (Wk 0): 40 ± 3 g
  Body wt, wk 4: 180 ± 10 g
  Body wt, wk 8: 281 ± 18 g
  Body wt, wk 16: 356 ± 21 g
  Body wt, wk 22: 394 ± 22 g
  Body wt, wk 30: 432 ± 24 g
  Body wt, wk 37 (at termination): 459 ± 19 g
[2]; Vehicle treated
  Body wt, Initial (Wk 0): 40 ± 3 g
  Body wt, wk 4: 182 ± 10 g
  Body wt, wk 8: 286 ± 18 g
  Body wt, wk 16: 362 ± 21 g
  Body wt, wk 22: 406 ± 22 g
  Body wt, wk 30: 449 ± 24 g
  Body wt, wk 37 (at termination): 470 ± 24 g
[3]; 27 (BSC) or 26 (BTC) animals/group
  Number of animals with ear duct tumors: 5 animals
[3]; AOM treated
  % of animals with ear duct tumors: 19 % of animals
[4]
  Non-selenium-dependent glutathione peroxidase activity (in words): no differences in the activity of non-selenium-dependent glutathione peroxidase activity among the dietary groups
[5]; 2 wk after AOM treatment
  Death after AOM treatment: One
[5]
  Evidence of toxicity in animals fed the diet: no evidence of toxicity
[6]; [11]
  Colon tumor incidence, Adenocarcinoma: 31 % of animals with tumors
  Colon tumor incidence, Adenoma: 62 % of animals with tumors
  Colon tumor incidence, Total (adenomas plus adenocarcinomas): 69 % of animals with tumors
[6]; [12]
  Number of animals with colon tumors, Adenocarcinoma: 8 number of animals
  Number of animals with colon tumors, Adenoma: 16 number of animals
  Number of animals with colon tumors, Total: 18 number of animals
[6]; 25 ppm in diet, Mean ± SD
  Colon tumor multiplicity, Adenocarcinoma: 0.35 ± 0.4 no. of tumors/animals
  Colon tumor multiplicity, Adenoma: 1.27 ± 1.3 no. of tumors/animals
  Colon tumor multiplicity, Total: 1.62 ± 1.3 no. of tumors/animals
[6]; 25 ppm in diet, in parentheses
  Number of tumors per group, colon Adenocarcinoma: 9 number of tumors per group
[6]; vs control diet
  Incidence of total colon tumors (in words): no differences in colon tumor incidences between the animals fed the control diet and BTC diet
[7]; [11]
  Small intestinal tumor incidence, Adenocarcinoma: 38 % of animals with tumors
  Small intestinal tumor incidence, Adenoma: 12 % of animals with tumors
  Small intestinal tumor incidence, Total: 38 % of animals with tumors
[7]; [12]
  Number of animals with small intestinal tumors, Adenocarcinoma: 10 number of animals
  Number of animals with small intestinal tumors, Adenoma: 3 number of animals
  Number of animals with small intestinal tumors, Total: 10 number of animals
[7]; 25 ppm in diet, Mean ± SD
  Small intestinal tumor multiplicity, Adenocarcinoma: 0.34 0.6 no. of tumors/animal
  Small intestinal tumor multiplicity, Adenoma: 0.12 0.3 no. of tumors/animal
  Small intestinal tumor multiplicity, Total: 0.46 0.6 no. of tumors/animal
[8]; [13]
  Selenium-dependent glutathione peroxidase activity, Kidney: 0.64 0.30 μmol NADPH oxidized/min/mg protein
  Selenium-dependent glutathione peroxidase activity, Liver: 1.90 0.66 μmol NADPH oxidized/min/mg protein
  Selenium-dependent glutathione peroxidase activity, Plasma: 0.69 0.16 μmol NADPH oxidized/min/mg protein
[8]; 25 ppm in diet 5 wk, colonic mucosa, Mean ± SE (n = 6)
  Selenium-dependent glutathione peroxidase activity, Colon: 0.23 0.06 μmol NADPH oxidized/min/mg protein
[8]; 25 ppm in diet 5 wk, small intestinal mucosa, Mean ± SE (n = 6)
  Selenium-dependent glutathione peroxidase activity, Small intestine: 0.20 0.10 μmol NADPH oxidized/min/mg protein
[8]; liver and plasma
  Selenium-dependent glutathione peroxidase activity (in words): not affected
[9]
  Inhibition of chemically induced carcinogenesis: inhibitor of carcinogenesis induced by chemicals in experimental animals
[10]; 25 ppm in diet, AOM treated
  No. of animals with metastasis: 0 No. of animals
[10]; several organs
  AOM-induced metastasis (in words): none of the animals in BSC and BTC diet groups developed metastasis
